Results reported in patent US9533953B2, “Method of preparation of crystal forms of 4-(cyclopropylmethoxy)-n-(3,5-dichloro-1-oxidopyridyn-4-yl)-5-methoxypyridine-2-carboxamide and crystal forms thereof” (SANOFI, priority 2012, dated 2017).
Each block holds one molecule with its values, some of them ahead of it.

Columns and labels:
Format in all cases: physicochemical
[1] = Water-Activity Isotherm (DVS), water sorption/desorption at 25° C.
Protocol: All experiments are performed on a DVS-1 automated gravimetric vapor sorption analyser (Surface Measurement Systems Ltd., London, UK). The DVS-1 measures the uptake and loss of vapor gravimetrically using a Cahn D200 recording ultra-microbalance with a mass resolution of ±0.1 μg. A controlled relative humidity is generated by mixing different proportions of dry and water saturated carrier gas streams (monitored by mass flow controllers). The temperature is maintained constant, ±0.1° C., by enclosing the entire system in a temperature-controlled incubator. A sample size between 4 and 10 mg is used. Prior to being exposed to any water vapor the samples are dried at 0% RH to remove any surface water present and establish a dry, baseline mass. Next, the samples are exposed to an increasing relative humidity raised by a step of 5% RH from 0% to 90% RH.

[2] = Thermo-Gravimetric Analysis (TGA)
Protocol: Analyses are carried out on a T.A. instruments TGAQ500 analyzer. Mass calibration is performed with 10 and 100 mg certified masses and the instrument is temperature-calibrated with alumel and nickel standards (Curie points of respectively 154° C. and 354° C.). Samples are exposed to a constant nitrogen stream of 60 mL/min and temperature ranges from 20° C. to 250° C. at a 5° C./min rate. The quantity of product lies between 2 and 5 mg. The powder is deposited in an open aluminum sample pan, which is itself placed in a platinum pan.

[3] = Physical stability of the crystal form on heating, humidity and storage (XRPD); conditions: for temperature of transformation into another crystal form: A into B, D into E, E into B, G desolvates into D; for desolvation behaviour: slight heating / upon heating
Protocol: High-resolution diagrams are recorded at ambient conditions on a PANalytical X'Pert Pro MPD powder diffractometer using the Bragg-Brentano (vertical 0-20 configuration) parafocusing geometry coupled with a X'Celerator detector. A sealed copper anode X-ray tube is used, running at 45 kV and 40 mA levels. An incident beam monochromator (Johansson type: a symmetrically cut curved germanium (111) crystal) produces pure Cu Kα1 radiation (λ[…]=1.54060 Å). A thin layer of the product is deposited on a single-crystal silicon wafer, cut out according to Si (510) crystallographic orientation that, by systematic extinction, impedes any Bragg reflection. In order to bring more crystallites into the diffraction position and thus reduce the influence of particle statistics on the measurements, a sample spinner is used. The spinner rotation speed is set at 1 revolution per second. The angular range extends from 2 to 50° in 2θ, with a 0.02° step size in 2θ. A variable counting time from 100 to 2500 seconds per step was used.
XRPD analyses are carried out on a Siemens-Bruker D5000 Matic powder diffractometer using the Bragg-Brentano (vertical θ-2θ configuration) parafocusing geometry. A thin layer of the product is deposited on a single-crystalline silicon wafer, cut out according to Si(510) crystallographic orientation that, by systematic extinction, impedes any Bragg reflection. A sealed cobalt anode X-ray tube running at 40 kV and 30 mA levels is used. Two lines are typically emitted: CoKα1 (λ=1.7890 Å) and CoKα2 (λ=1.7929 Å). […] The primary beam passes through a parallel plate collimator (0.2 mm Soller slits), then through a divergence slit (0.2 mm). A Braun 50 M multicanal linear detector completes the setup. It has a 10°-wide detection window in angle 2θ.

[4] = Behaviour under mechanical strain (mortar grinding, jet-milling); conditions: for effect of jet-milling on the crystalline form: DSC / XRPD
Protocol: Crystal Form A is of particular interest because of its behaviour under mechanical strain. The effect of 30 seconds of mortar grinding was evaluated. […] The behaviour of amorphous phase present in ground form A was also studied. No recrystallization of the amorphous phase was detected through sorption/desorption of water at 25° C. Nevertheless, maturation of ground samples in pure water for 6 days at room temperature led to partial recrystallization of the amorphous phase into form A.
A particle size close to 5 μm could be reached. The DSC analyses indicate that there is no modification of the crystalline structure before and after jet-milling of Form A.
A particle size close to 5 μm could be reached.

SMILES: COc1cnc(C(=O)Nc2c(Cl)c[n+]([O-])cc2Cl)cc1OCC1CC1 [Crystal Form A, 4-(cyclopropylmethoxy)-N-(3,5-dichloro-1-oxidopyridin-4-yl)-5-methoxypyridine-2-carboxamide]
- hygroscopicity ([1]; 25° C. isotherm): not hygroscopic
- water uptake ([1]; 25° C., up to 90% of relative humidity (RH)): no significant water uptake
- temperature beyond which thermal decomposition is observed [2]: > 190 °C
- TGA weight loss ([2]; from room temperature up to 190° C.): no weight loss
- temperature of transformation into another crystal form ([3]; upon heating): above 100 °C
- amorphous phase after grinding (XRPD) ([4]; 30 seconds of mortar grinding): appearance of amorphous phase was detected
- polymorphic transition after grinding (XRPD) ([4]; 30 seconds of mortar grinding): no observed polymorphic transition
- particle size reached by jet-milling [4]: ~5 μm
- effect of jet-milling on the crystalline form [4]: without any impact on the crystalline form

SMILES: COc1cnc(C(=O)Nc2c(Cl)c[n+]([O-])cc2Cl)cc1OCC1CC1 [Crystal Form D, 4-(cyclopropylmethoxy)-N-(3,5-dichloro-1-oxidopyridin-4-yl)-5-methoxypyridine-2-carboxamide]
- total water gain ([1]; 25° C., at 90% RH): 8.7%
- total water gain expressed as moles of water ([1]; 25° C., at 90% RH): 2 moles of water
- loss of water, last desorption step ([1]; 25° C., between 70% and 0% RH, without hysteresis): 1.3%
- water desorption, second desorption step ([1]; 25° C., between 75% and 70% RH): 6.4%
- water uptake, second sorption step ([1]; 25° C., between 85% and 90% RH): 6.9%
- temperature beyond which thermal decomposition is observed [2]: > 205 °C
- TGA weight loss ([2]; between 20 and 100° C.): 0.2%
- TGA weight loss ([2]; between 100 and 205° C.): no weight loss
- temperature range in which the form is stable / physically unaltered ([3]; upon heating): up to 110 °C
- temperature of transformation into another crystal form ([3]; upon heating): 110 °C
- particle size reached by jet-milling [4]: ~5 μm
- effect of jet-milling on the crystalline form [4]: without any impact on the crystalline form

SMILES: COc1cnc(C(=O)Nc2c(Cl)c[n+]([O-])cc2Cl)cc1OCC1CC1 [Crystal Form C, 4-(cyclopropylmethoxy)-N-(3,5-dichloro-1-oxidopyridin-4-yl)-5-methoxypyridine-2-carboxamide]
- behaviour on storage ([3]; 15 months of storage in ambient conditions): transformed into Crystal Form D and amorphous phase

SMILES: COc1cnc(C(=O)Nc2c(Cl)c[n+]([O-])cc2Cl)cc1OCC1CC1 [Crystal Form B, 4-(cyclopropylmethoxy)-N-(3,5-dichloro-1-oxidopyridin-4-yl)-5-methoxypyridine-2-carboxamide]
- temperature beyond which thermal decomposition is observed [2]: > 190 °C

SMILES: COc1cnc(C(=O)Nc2c(Cl)c[n+]([O-])cc2Cl)cc1OCC1CC1 [Crystal Form E, 4-(cyclopropylmethoxy)-N-(3,5-dichloro-1-oxidopyridin-4-yl)-5-methoxypyridine-2-carboxamide]
- TGA weight loss ([2]; between 100 and 170° C.): 0.8%
- TGA weight loss ([2]; from room temperature to 100° C.): no weight loss
- stability under room conditions ([3]; room conditions): stable under room conditions
- temperature of transformation into another crystal form ([3]; upon heating): 140 °C

Second part, the molecule after the results:

- desolvation behaviour [3]: desolvates easily into form D
SMILES: COc1cnc(C(=O)Nc2c(Cl)c[n+]([O-])cc2Cl)cc1OCC1CC1 [Crystal Form I, 4-(cyclopropylmethoxy)-N-(3,5-dichloro-1-oxidopyridin-4-yl)-5-methoxypyridine-2-carboxamide]

- desolvation behaviour [3]: desolvates easily into Crystal Form D
SMILES: COc1cnc(C(=O)Nc2c(Cl)c[n+]([O-])cc2Cl)cc1OCC1CC1 [Crystal Form H, 4-(cyclopropylmethoxy)-N-(3,5-dichloro-1-oxidopyridin-4-yl)-5-methoxypyridine-2-carboxamide]

- temperature of transformation into another crystal form ([3]; upon heating): 70 °C
SMILES: COc1cnc(C(=O)Nc2c(Cl)c[n+]([O-])cc2Cl)cc1OCC1CC1 [Crystal Form G, 4-(cyclopropylmethoxy)-N-(3,5-dichloro-1-oxidopyridin-4-yl)-5-methoxypyridine-2-carboxamide]
